{
  "source": "patent US12685739B2",
  "about": "“Compositions and methods for treating lung injury” (University of Maryland, Baltimore, priority 2020, dated 2026)",
  "key": {"[1]": {"system": "rat model of ARDS plus MV", "experiment": "rat model of ARDS (intratracheal HCl) plus mechanical ventilation", "assay_type": "in vivo", "method": "In other cases, a rat model of ARDS was used in which acute lung injury is induced by acid instillation, followed by mechanical ventilation. […] In a second experiment, a conventional rat model of ARDS plus MV was used. Rats were anesthetized and intubated. […] After inducing ALI, rats received MV for 4 hours, as above, except that VT=8 mL/kg. Rats were euthanized at 24 hours. […] MV (VT=8 mL/kg) was continued for 4 hours, following which rats were extubated, recovered from anesthesia and returned to their home cages. Lung function was evaluated at 24 hours. Rats were re-anesthetized. […] Rats were then re-intubated for MV. […] In a subgroup of rats, after completing the 24-hour lung function assessments, rats were euthanized, and the lungs were […] using 5 mL normal saline to obtain bronchioalveolar lavage fluid (BALF). BALF was analyzed for protein."}, "human neutrophils": {"system": "human neutrophils", "experiment": "MRP8/14 exocytosis from activated human neutrophils, ELISA", "assay_type": "cell-based", "set-up": "dose or concentration left out as unconfirmed", "details": "co-incubation with glibenclamide, n=6", "method": "FIG. 9. […] Exocytosis of MRP8/14 from human neutrophils using ELISA was studied. […] Co-immunoprecipitation experiments were performed to determine whether SUR1 and MRP8/14 physically co-associate."}, "[2]": {"system": "LPS-induced mouse model of ARDS", "experiment": "LPS-induced mouse model of ARDS", "assay_type": "in vivo", "details": "10 μg IP 2 hours after LPS and again 5 hours later, 24 hours after LPS, vs vehicle", "method": "At 24 hours after LPS induction, bronchioalveolar fluid (BALF) was analyzed for neutrophil infiltration, and lung tissues were analyzed for cytokine expression. […].\nAt 24 hours after LPS induction, bronchioalveolar fluid (BALF) was analyzed for neutrophil infiltration, and lung tissues were analyzed for S100A8/MRP8, which is released by neutrophils. As previously, LPS instilled into the lungs caused a massive invasion of neutrophils into the BALF, as well as dramatic accumulation of the S100A8/MRP8. […]"}, "SUR1-regulated channels": {"system": "SUR1-regulated channels", "details": "in vitro, low-dose; read-out: EC50, inhibition of SUR1-regulated channels; cited from earlier work"}, "[3]": {"system": "murine model of ALI induced by intranasal ovalbumin (OVA)", "details": "20 mg/kg, mice pre-sensitized to OVA; cited from earlier work"}, "[4]": {"system": "rat model of ALI induced by IV administration of oleic acid (OA)", "details": "75 mg/kg IP 1 hour before OA; cited from earlier work"}, "[5]": {"system": "mouse model of ventilator-induced lung injury (VILI)", "details": "50 mg/kg, VT=15 mL/kg; cited from earlier work"}, "[6]": {"system": "rat model of VILI with MV alone", "experiment": "rat model of VILI with mechanical ventilation alone", "details": "10 μg/kg IP at start of MV, MV 4 hours (10 mL/kg), assessed at 24 hours, vs vehicle"}, "[7]": {"details": "50 μg/kg IP at onset of MV and at 6 hours, 24 hours, vs VEH"}},
  "note": "pEC50: −log10 of the molar value.",
  "data": [
    {"molecule": "COc1ccc(Cl)cc1C(=O)NCCc1ccc(S(=O)(=O)NC(=O)NC2CCCCC2)cc1", "note": "[glibenclamide]", "values": [
      {"measurement": "dynamic lung compliance, pressure-volume curve", "setting": "[1]; [7]", "result": "the shift to the right was less pronounced"},
      {"measurement": "hemoglobin (Hgb) in lung tissues, immunoblot", "setting": "[1]; [7]", "result": "less hemorrhagic exudate"},
      {"measurement": "hemorrhagic exudates, gross appearance of lungs", "setting": "[1]; [7]", "result": "reduced hemorrhagic exudates"},
      {"measurement": "protein in BALF", "setting": "[1]; [7]", "result": "the increase was less pronounced"},
      {"measurement": "oxygen saturation (sO2), pulse oximetry", "setting": "[1]; 50 μg/kg IP at onset of MV and at 6 hours, at 24 hours, n=3", "result": "88±4.4", "unit": "%"},
      {"measurement": "cellular infiltrates, H&E-stained lung sections", "setting": "[1]; ARDS with MV, vs VEH", "result": "reduced cellular infiltrates"},
      {"measurement": "neutrophil invasion, immunohistochemistry for MPO", "setting": "[1]; lung tissues, vs VEH", "result": "less pronounced"},
      {"measurement": "quantification of MPO by immunohistochemistry and immunoblot", "setting": "[1]; lung tissues, vs VEH", "result": "significant reduction"},
      {"measurement": "NOS2 expression in lung tissues", "setting": "[1]; vs VEH", "result": "attenuated"},
      {"measurement": "TNF expression in lung tissues", "setting": "[1]; vs VEH", "result": "attenuated"},
      {"measurement": "MRP8/14 exocytosis (release into extracellular media)", "setting": "human neutrophils; neutrophils stimulated with LPS", "result": "significantly reduced"},
      {"measurement": "MRP8/14 exocytosis (release into extracellular media)", "setting": "human neutrophils; neutrophils stimulated with PMA", "result": "significantly reduced"},
      {"measurement": "IL-6 in lung tissues", "setting": "[2]", "result": "significant reduction"},
      {"measurement": "MCP-1 in lung tissues", "setting": "[2]", "result": "significant reduction"},
      {"measurement": "S100A8/MRP8 in lung tissues", "setting": "[2]", "result": "significant reduction"},
      {"measurement": "neutrophils in BALF", "setting": "[2]", "result": "significant reduction"},
      {"measurement": "IL-6 in lung tissues", "setting": "[2]; listed as Glibenclamide", "result": "significant reductions"},
      {"measurement": "MCP-1 in lung tissues", "setting": "[2]; listed as Glibenclamide", "result": "significant reductions"},
      {"measurement": "pEC50", "setting": "SUR1-regulated channels", "result": 7.32},
      {"measurement": "Th2 cytokines IL-5, IL-4 and IL-13 in BALF", "setting": "[3]", "result": "significantly reduced"},
      {"measurement": "levels of myeloperoxidase (MPO) and malondialdehyde (MDA)", "setting": "[4]", "result": "reduced levels"},
      {"measurement": "pulmonary interstitial edema, infiltration of neutrophils and mononuclear cells", "setting": "[4]", "result": "significantly alleviated"},
      {"measurement": "BALF total protein, neutrophils, IL-1β, IL-6 and KC levels", "setting": "[5]", "result": "reduced"},
      {"measurement": "pulmonary edema", "setting": "[5]", "result": "reduced pulmonary edema"},
      {"measurement": "pulmonary edema (wet weight/dry weight)", "setting": "[6]", "result": "significantly reduced"},
      {"measurement": "pulmonary edema (wet weight/dry weight)", "setting": "[6]; listed as GLIB", "result": "significantly decreased pulmonary edema"},
      {"measurement": "pulmonary edema (wet weight/dry weight)", "setting": "[6]; listed as Glibenclamide", "result": "significantly decreased pulmonary edema"}
    ]}
  ]
}
